For assay [1], the system named is drug-resistant bacteria capable of producing the 3'-phosphotransferase. To be noted: 3'-phosphotransferase producers; cited from earlier work.
The test system of assay [2] is Escherichia coli K-12 LA 290 R55. The assay is described as follows: Minimum inhibitory concentration, agar dilution-streak method. Format: cell-based. To be noted: K12LA290R55, 18 h, read-out: Minimum Inhibitory Concentration. Here is the method: (§1) The minimum inhibitory concentrations (mcg/ml) of the new compounds 1-N-((S)-γ-amino-α-hydroxybutyryl)-3'-deoxykanamycin A (abbreviated as S-AHB-DKA); 1-N-((SR)-β-amino-α-hydroxypropionyl)-3'-deoxykanamycin A (abbreviated as SR-AHP-DKA); 1-N-((S)-δ-amino-α-hydroxyvaleryl)-3'-deoxykanamycin A (abbreviated as S-AHV-DKA); and 1-N-((S)-γ-amino-α-hydroxybutyryl)-6'-N-methyl-3'-deoxykanamycin A (abbreviated as S-AHB-MDKA) against various organisms were determined according to agar dilution-streak method (nutrient agar) at 37° C, the estimation being made after 18 hours incubation. For the comparison purpose, the minimum inhibitory concentrations (mcg/ml) of the parent antibiotic 3'-deoxykanamycin A, as well as 1-N-((S)-γ-amino-α-hydroxybutyryl)kanamycin A (abbreviated as AHB-KMA) which is known from U.S. Pat. No. 3,781,268 were also determined in the same manner as stated above.
On the technique in general: In agar dilution, organisms are placed on agar that contains the substance at set levels.

In assay [3] the test system is Staphylococcus aureus FDA 209P. The assay is described as above. Format: cell-based. To be noted: FDA209P, S. aureus FDA 209P, nutrient agar, 37° C, 18 hours. The procedure: as §1
For assay [4], the system named is Escherichia coli K-12 ML 1630. The assay is described as above. Particulars: K12ML1630, E. coli K-12 ML 1630, nutrient agar, 37° C, 18 hours. Format: cell-based. Here is the method:
as §1

For assay [5], the system named is Escherichia coli K-12 W677. The assay is described as above. Format: cell-based. Particulars: K12W677, E. coli K-12 W677, nutrient agar, 37° C, 18 hours. Here is the method:
as §1

Assay [6] relates to Pseudomonas aeruginosa No. 12. Described as above. Format: cell-based. To be noted: P. aeruginosa No. 12, nutrient agar, 37° C, 18 hours. The procedure: as §1
The subject of assay [7] is Pseudomonas aeruginosa A3. Described as above. Format: cell-based. Particulars: P. aeruginosa A3, nutrient agar, 37° C, 18 hours. Here is the method:
as §1

Assay [8] relates to Escherichia coli K-12 JR66/W677. The description is as above. Format: cell-based. To be noted: K12JR66/W677, 18 h, read-out: Minimum Inhibitory Concentration. Here is the method:
as §1

In assay [9] the test system is Escherichia coli K-12 ML 1410. The description is as above. Particulars: K12ML1410, E. coli K-12 ML 1410, nutrient agar, 37° C, 18 hours. Format: cell-based. Here is the method:
as §1

The test system of assay [10] is Pseudomonas aeruginosa GN315. The description is as above. Format: cell-based. Particulars: P. aeruginosa GN315, nutrient agar, 37° C, 18 hours. The procedure:
as §1

The subject of assay [11] is Escherichia coli K-12 ML 1629. The description is as above. Format: cell-based. To be noted: K12ML1629, E. coli K-12 ML 1629, nutrient agar, 37° C, 18 hours. The procedure:
as §1

The next assay has as its system Escherichia coli K-12. The assay is described as above. Format: cell-based. Particulars: K12, E. coli K-12, nutrient agar, 37° C, 18 hours. Here is the method:
as §1

Assay [12] has as its system various kanamycin-resistant bacteria and Pseudomonas aeruginosa (for example, Pseudomonas aeruginosa GN 315) capable of producing the 6'-acetyltransferase. To be noted: 6'-acetyltransferase producers; cited from earlier work.
In assay [13] the test system is kanamycin-resistant bacteria and ribostamycin-resistant bacteria. To be noted: cited from earlier work.

Each structure is given as a SMILES string. Values after ≈ are worked out from the molar mass of the structure shown.

As for `NC[C@H]1O[C@H](O[C@H]2[C@H](O)[C@@H](O[C@H]3O[C@H](CO)[C@@H](O)[C@H](N)[C@H]3O)[C@H](N)C[C@@H]2N)[C@H](O)C[C@@H]1O` [DKA, 3'-deoxykanamycin A], the “effectiveness against drug-resistant bacteria” value (shortened to “effectiveness”) in [1] is “practically effective against the drug-resistant bacteria”. Moreover, the MIC turned out to be 3.12 µg/mL (≈ 6.66 µM) in assay [2]; 1.56 µg/mL (≈ 3.33 µM) in assay [3]; 3.12 µg/mL (≈ 6.66 µM) in assay [4]; 3.12 µg/mL (≈ 6.66 µM) in [5]; 12.5 µg/mL (≈ 26.7 µM) in assay [6]; 3.12 µg/mL (≈ 6.66 µM) in [7]. The MIC in assay [8] was above 100 µg/mL; in assay [9], 3.12 µg/mL (≈ 6.66 µM); in [10] it was above 100 µg/mL; in assay [11], 3.12 µg/mL (≈ 6.66 µM); with Escherichia coli K-12, 3.12 µg/mL (≈ 6.66 µM).

On to `NC[C@@H]1CC[C@@H](N)[C@@H](O[C@H]2[C@H](O[C@@H]3O[C@H](CO)[C@@H](O)[C@H]3O)[C@@H](O)[C@H](N)C[C@@H]2N)O1` [3',4'-dideoxyribostamycin], for which the “effectiveness” value in [1] is reported as “practically effective against the drug-resistant bacteria”.

Consider `NC[C@@H]1CC[C@@H](N)[C@@H](O[C@H]2[C@H](O)[C@@H](O[C@H]3O[C@H](CO)[C@@H](O)[C@H](N)[C@H]3O)[C@H](N)C[C@@H]2N)O1` [3',4'-dideoxykanamycin B], for which, in assay [1], the “effectiveness” value is reported as “practically effective against the drug-resistant bacteria”.

Turning to `CNC[C@H]1O[C@H](O[C@H]2[C@H](O)[C@@H](O[C@H]3O[C@H](CO)[C@@H](O)[C@H](N)[C@H]3O)[C@H](N)C[C@@H]2N)[C@H](N)C[C@@H]1O` [6'-N-methyl-3'-deoxykanamycin B], the “activity against resistant bacteria” value in assay [12] is “active against various kanamycin-resistant bacteria and Pseudomonas aeruginosa”.

With `NCC[C@H](O)C(=O)N[C@@H]1C[C@H](N)[C@@H](O[C@H]2O[C@H](CN)[C@@H](O)[C@H](O)[C@H]2O)[C@H](O)[C@H]1O[C@H]1O[C@H](CO)[C@@H](O)[C@H](N)[C@H]1O` [AHB-KMA, 1-N-((S)-γ-amino-α-hydroxybutyryl)kanamycin A, reference compound], the MIC in assay [2] was determined as 0.78 µg/mL (≈ 1.33 µM); in [3] it was 0.78 µg/mL (≈ 1.33 µM); in assay [4], 1.56 µg/mL (≈ 2.66 µM); in assay [5], 0.78 µg/mL (≈ 1.33 µM); in assay [6], 6.25 µg/mL (≈ 10.7 µM); in [7], 3.12 µg/mL (≈ 5.33 µM). The MIC is 3.12 µg/mL (≈ 5.33 µM) in [8]; 0.78 µg/mL (≈ 1.33 µM) in [9]; 100 µg/mL (≈ 171 µM) in assay [10]; 0.78 µg/mL (≈ 1.33 µM) in assay [11]; 0.78 µg/mL (≈ 1.33 µM) with Escherichia coli K-12.

For `CNC[C@@H]1CC[C@@H](N)[C@@H](O[C@H]2[C@H](O)[C@@H](O[C@H]3O[C@H](CO)[C@@H](O)[C@H](N)[C@H]3O)[C@H](N)C[C@@H]2N)O1` [6'-N-methyl-3',4'-dideoxykanamycin B], the “activity against resistant bacteria” value in [12] was “active against various kanamycin-resistant bacteria and Pseudomonas aeruginosa”.

Turning to `NCCC[C@H](O)C(=O)N[C@@H]1C[C@H](N)[C@@H](O[C@H]2O[C@H](CN)[C@@H](O)C[C@H]2O)[C@H](O)[C@H]1O[C@H]1O[C@H](CO)[C@@H](O)[C@H](N)[C@H]1O` [S-AHV-DKA, 1-N-((S)-δ-amino-α-hydroxyvaleryl)-3'-deoxykanamycin A], the MIC in [2] turned out to be 3.12 µg/mL (≈ 5.35 µM); in assay [3], 0.78 µg/mL (≈ 1.34 µM); in [4], 1.56 µg/mL (≈ 2.67 µM); in [5], 3.12 µg/mL (≈ 5.35 µM); in [6], 6.25 µg/mL (≈ 10.7 µM); in assay [7], 3.12 µg/mL (≈ 5.35 µM). In addition, the MIC in [8] is 3.12 µg/mL (≈ 5.35 µM); in assay [9], 3.12 µg/mL (≈ 5.35 µM); in [10], above 100 µg/mL; in assay [11], 1.56 µg/mL (≈ 2.67 µM); against Escherichia coli K-12 it was 0.78 µg/mL (≈ 1.34 µM).

Turning to `NCC[C@H](O)C(=O)N[C@@H]1C[C@H](N)[C@@H](O[C@H]2O[C@H](CN)[C@@H](O)[C@H](O)[C@H]2N)[C@H](O[C@@H]2O[C@H](CO)[C@@H](O)[C@H]2O)[C@H]1O` [butirosin B, 1-N-((S)-α-hydroxy-γ-amino-n-butyryl)-5-O-β-D-ribofuranosylneamine], in [13], the “activity against resistant bacteria” value is “active against some kanamycin-resistant bacteria and some ribostamycin-resistant bacteria”.

Take `NCC(O)C(=O)N[C@@H]1C[C@H](N)[C@@H](O[C@H]2O[C@H](CN)[C@@H](O)C[C@H]2O)[C@H](O)[C@H]1O[C@H]1O[C@H](CO)[C@@H](O)[C@H](N)[C@H]1O` (stereo partly drawn) [SR-AHP-DKA, 1-N-((SR)-β-amino-α-hydroxypropionyl)-3'-deoxykanamycin A]: the MIC worked out at 1.56 µg/mL (≈ 2.81 µM) in assay [2]; 0.78 µg/mL (≈ 1.4 µM) in assay [3]; 0.78 µg/mL (≈ 1.4 µM) in assay [4]; 0.78 µg/mL (≈ 1.4 µM) in [5]; 6.25 µg/mL (≈ 11.2 µM) in [6]; 3.12 µg/mL (≈ 5.62 µM) in [7]. Moreover, the MIC in assay [8] was 1.56 µg/mL (≈ 2.81 µM); in assay [9], 0.78 µg/mL (≈ 1.4 µM); in assay [10], above 100 µg/mL; in assay [11], 0.78 µg/mL (≈ 1.4 µM); in the assay on Escherichia coli K-12, 0.39 µg/mL (≈ 0.702 µM).

Take `CNC[C@H]1O[C@H](O[C@H]2[C@H](O)[C@@H](O[C@H]3O[C@H](CO)[C@@H](O)[C@H](N)[C@H]3O)[C@H](NC(=O)[C@@H](O)CCN)C[C@@H]2N)[C@H](O)C[C@@H]1O` [S-AHB-MDKA, 1-N-((S)-γ-amino-α-hydroxybutyryl)-6'-N-methyl-3'-deoxykanamycin A]: the MIC in assay [2] amounted to 1.56 µg/mL (≈ 2.67 µM); in assay [3] it was 0.78 µg/mL (≈ 1.34 µM); in assay [4], 0.78 µg/mL (≈ 1.34 µM); in [5], 3.12 µg/mL (≈ 5.35 µM); in assay [6], 3.12 µg/mL (≈ 5.35 µM); in [7], 3.12 µg/mL (≈ 5.35 µM). Also, the MIC in assay [8] came to 1.56 µg/mL (≈ 2.67 µM); in assay [9], 0.78 µg/mL (≈ 1.34 µM); in assay [10], 6.25 µg/mL (≈ 10.7 µM); in assay [11] it was 1.56 µg/mL (≈ 2.67 µM); against Escherichia coli K-12 it was 0.39 µg/mL (≈ 0.668 µM).

Consider `NCC[C@H](O)C(=O)N[C@@H]1C[C@H](N)[C@@H](O[C@H]2O[C@H](CN)[C@@H](O)C[C@H]2O)[C@H](O)[C@H]1O[C@H]1O[C@H](CO)[C@@H](O)[C@H](N)[C@H]1O` [S-AHB-DKA, 1-N-((S)-γ-amino-α-hydroxybutyryl)-3'-deoxykanamycin A], for which the MIC in assay [2] was 0.78 µg/mL (≈ 1.37 µM); in assay [3], 0.39 µg/mL (≈ 0.685 µM); in [4], 0.78 µg/mL (≈ 1.37 µM); in [5], below 0.2 µg/mL; in assay [6], 3.12 µg/mL (≈ 5.48 µM); in assay [7], 3.12 µg/mL (≈ 5.48 µM). Also, the MIC came to 0.78 µg/mL (≈ 1.37 µM) in assay [8]; 0.39 µg/mL (≈ 0.685 µM) in assay [9]; 100 µg/mL (≈ 176 µM) in assay [10]; 0.39 µg/mL (≈ 0.685 µM) in assay [11]; 0.39 µg/mL (≈ 0.685 µM) in the assay with Escherichia coli K-12.

Values taken from patent US4104372A, “1-N-(α-hydroxy-ω-aminoalkanoyl) derivatives of 3'-deoxykanamycin A and the production thereof” (Zaidan Hojin Biseibutsu Kagaku Kenkyu Kai, priority 1975, dated 1978).
